{"source": "patent US12258625B2", "about": "“Compositions and methods relating to nucleic acid interaction reporters” (Trustees of Boston University, priority 2022, dated 2025)", "system": "miR-430 target site", "assay": "microRNA sensor (Ago2 fused to Adar catalytic subunit)", "format": "in vivo, zebrafish", "procedure": "In this case, the writer comprises a protein fusion between a protein from the Argonaute family and the catalytic domain of the RNA-editing enzyme ADAR. The recorder must contain the target site of the microRNA of interest, usually the 6 to 8 nucleotides complementary to the miRNA seed region. In the presence of the writer, the recorder and the miRNA of interest, the ternary interaction is recorded as RNA editing in the recorder mRNA. The number of edits will be proportional to the strength of the microRNA-target site interaction. Other variants of this approach include expressing the Ago-Adar writer together with a library of recorders that containing all possible 8-nucleotide sequences as binding site. […]\nFIG. 18 depicts a microRNA sensor. miR-430 is a small non-coding regulatory microRNA that recognize their targets mRNAs trough interaction and pairing. miR-430 binds to the effector protein Ago2 and together form a riboprotein complex that recognizes and binds to target mRNAs. miR-430 is the only microRNA expressed during early embryogenesis. […] Only with the tertiary interaction between Ago2, a microRNA, and the target is reconstituted, is editing detected.\nUsage of the interactome recorder system to determine microRNA activity in vivo (FIG. 8A). […] In the presence of the writer, the recorder and the miRNA of interest, the ternary interaction is recorded as RNA editing in the recorder mRNA. […]", "data": [{"smiles": "CC[C@H](C)[C@@H]1NC(=O)CNC(=O)[C@@H]2Cc3c([nH]c4cc(O)ccc34)[S+]([O-])C[C@@H](NC(=O)CNC1=O)C(=O)N[C@@H](CC(N)=O)C(=O)N1C[C@H](O)C[C@H]1C(=O)N[C@@H]([C@@H](C)[C@@H](O)CO)C(=O)N2", "note": "(stereo partly drawn) [alpha-Amanitin]", "values": [{"measurement": "editing of the recorder", "setting": "embryos injected with alpha-Amanitin", "result": "not when endogenous miR-430 expression is inhibited"}, {"measurement": "miR-430 expression", "setting": "injection, early embryogenesis", "result": "prevents its expression"}]}]}
